{
  "source": "patent US11065264B2",
  "about": "“Metal-olsalazine coordination polymers for medical applications” (THE REGENTS OF THE UNIVERSITY OF CALIFORNIA, priority 2016, dated 2021)",
  "key": {"[1]": {"test": "Olsalazine release from pressed pellets under simulated gastrointestinal conditions", "type": "physicochemical", "description": "To evaluate the potential utility of Ca(H2olz).xH2O coordination solids in the treatment of ulcerative colitis (x=4, 2, and 0 for 1D, 2D, and 3D materials, respectively), each material was tested for drug release in comparison with Na2(H2olz), which is the salt used in the commercial formulation (available as Dipentum®). Each material was pressed into a pellet and exposed to solutions that mimic the pH of the stomach, small intestine, and colon. The pH and composition of the release medium was changed by addition of buffers in accordance to the expected transit times of a pill through the gastrointestinal tract: the first two hours were held at pH 1.1, the next two hours at pH 6.0, and the final six hours at pH 7.3. The vessels containing the pellet in release media were shaken at 60 rpm at 37° C. to simulate the motion and temperature of the body.\nSample pellets were prepared from pure material without binders or other agents typically used for pill preparation in the pharmaceutical industry. This was done in order to probe the properties of each material without influence from any excipients. Due to this method of preparation, however, pellets were susceptible to disintegration, which can accelerate the observed dissolution rates. […] The variability in pellet integrity likely contributed to the large observed standard deviation.\nFIG. 3 is a graph of the release of olsalazine from Na2(H2olz) (circles) and Ca(H2olz).xH2O materials under simulated gastrointestinal conditions (x=4, 2, 0, denoted by squares, triangles, and diamonds, respectively). Error bars represent standard deviation across three independent data sets, where the quantity of olsalazine in solution was measured spectroscopically (λ=360 nm). The release media were changed throughout the study to emulate the typical pH and transit times of a pill passing through the stomach (pH 1.1, 2 h), small intestine (pH 6.0, 2 h), and colon (pH 7.3, 6 h)."}, "[2]": {"test": "Content of active pharmaceutical ingredient by weight", "type": "physicochemical"}, "[3]": {"conditions": "treatment of ulcerative colitis; cited from earlier work"}},
  "data": [
    {"smiles": "O=C(O)c1cc(/N=N/c2ccc(O)c(C(=O)O)c2)ccc1O", "note": "[Na2(H2olz), olsalazine disodium]", "values": [
      {"measurement": "amount of drug (olsalazine) released at the four-hour time point", "setting": "[1]; pellet without excipients, pH 1.1 2 h then pH 6.0 2 h, 37° C., 60 rpm, absorbance 360 nm", "value": "over 90%"},
      {"measurement": "pellet disintegration in contact with the release solution", "setting": "[1]; pellets of pure material without binders", "value": "partially disintegrated"},
      {"measurement": "rate of olsalazine release/dissolution, Na2(H2olz) compared with Ca(H2olz) materials", "setting": "[1]; simulated gastrointestinal environment, pH 6.0 and above", "value": "dissolved more rapidly"},
      {"measurement": "percentage of the active pharmaceutical ingredient (olsalazine) by weight", "setting": "[2]", "value": 79, "unit": "%"},
      {"measurement": "patients discontinuing treatment because of diarrhea", "setting": "[3]", "value": "over 10%"},
      {"measurement": "patients experiencing diarrhea as a side effect", "setting": "[3]", "value": "≤ 35", "unit": "%"}
    ]}
  ]
}
